Laboratory results taken from PMC7934871 (JCI Insight, 2021).

How the values were obtained:
splenic CD8+ T cells = test: CD8+ T cell activation and ELISA (IFN-γ, IL-2); type: cell-based, mouse; conditions: anti-CD3/CD28 activated, 20 ng/mL IL-6, 1 μM peptide, 48 hours, ELISA, n = 4
Protocol: Data are representative of 3 independent experiments (n = 3). […] Data represent 4 independent experiments (n = 4). SD is shown. One-way ANOVA; ****P < 0.001.
CD8^+ T cells were isolated from C57BL/6 mice spleens as described above. A 96-well plate (Cellstar) was precoated with 2 μg/mL anti-CD3 antibody (BioLegend, clone 145-2c11, 100331) at 4°C overnight (BioLegend), and 1–2 × 10^5 cells were seeded into each well, followed by adding 2 μg/mL soluble CD28 (BioLegend, clone 37-51, 102012) and stimulation with 20 ng/mL IL-6. PS-unacet.-STAT3, PS-STAT3-K685R, and PO- or PS-acet.-STAT3 peptides at a concentration of 1 μM were added to the cells. Peptide treatment was repeated on the following day. Control cells were treated with HBSS. After 48 hours’ treatment with peptides at 37°C, supernatants were assessed for IFN-γ and IL-2 production by R&D, Bio-Techne, kits (DY402 and DY406), according to manufacturer’s instruction.

HCT116 xenograft tumors = test: HCT116 xenograft in NSG mice, peritumoral treatment; type: in vivo, mouse; conditions: HCT116 s.c. in NSG mice, 1 mg/kg peritumoral every day, n = 4
Protocol: Mouse care and experimental procedures were performed under pathogen-free conditions in accordance with established institutional guidance and approved IACUC protocols from Research Animal Care Committee of the City of Hope. For s.c. tumor challenge, 5 × 10^6 HCT116 cells were injected into NSG mice from The Jackson Laboratory or animal resource core facility at the City of Hope. After tumors reached an average size of 80~100 mm^3, mice were locally or intravenously treated with 1 mg/kg of PO- or PS-peptides (Anaspec) every day or every other day. Control animals were treated with the equal volume of HBSS (Invitrogen, Thermo Fisher Scientific). Tumor growth was measured by a digital caliper every other day. […] Lungs were then analyzed for immune responses by immunostaining followed by confocal imaging. […] Tumor growth was measured by a digital caliper every other day. […]
(B) PS-acet.-STAT3 peptide downregulates STAT3 phosphorylation, assessed by Western blotting using tumor homogenates prepared from tumors shown in A.
(C) mRNA levels for CASP9, BIRC5 and BCL2L1 in the same tumor tissues described above were assessed by qRT-PCR. […]
(D) Treatments with PS-acet.-STAT3 peptide induced cell death, indicated by H&E staining (upper panel). […] Right panels represent quantification of Ki-67 protein levels and mean of vessel diameter (data include 5 fields of view per group). […]

B16 melanoma = B16 melanoma lung metastasis in C57BL/6 mice; type: in vivo, mouse
Description: Figure 7 PS-acet.-STAT3 peptide treatment efficiently reduces mouse melanoma lung metastasis. (A) Systemic PS-acet.-STAT3 peptide treatment reduces B16 lung nodules in syngeneic mouse model compared with control treatments. The B16 lung nodules in mice treated with the indicated STAT3 peptides and vehicle (n = 5) were visualized by IF staining of gp100 and quantified by confocal microscopy and Zen software. The levels of phosphorylation of STAT3 (p-STAT3), CD69, and Foxp3 in the tumor or tumor-infiltrating CD8^+ T or CD4^+ T cells were detected by IF staining followed by confocal microscopy in B16 metastatic lung nodules upon treatments with vehicle, PO- or PS-acet.-STAT3, PS-STAT3-K685R, or PS-unacet.-STAT3 peptides as indicated. Images are representative of 5 lungs per experimental group. Scale bars: 20 μm (CD69, CD8, CD4, p-STAT3, and Foxp3) and 100 μm (gp100). White arrows indicate the immune cells. Insets: original magnification, ×40. (B) The graphs show the quantification of gp100 and p-STAT3 expression levels (MFI) or the cell population (%) of CD69^+ in CD8^+ or p-STAT3^+ in CD4^+ or Foxp3^+ in CD4^+ (data represent 5 lungs per group, n = 5). SD is shown. One-way ANOVA; ****P < 0.001.
Mouse care and experimental procedures were performed under pathogen-free conditions in accordance with established institutional guidance and approved IACUC protocols from Research Animal Care Committee of the City of Hope. For s.c. tumor challenge, 5 × 10^6 HCT116 cells were injected into NSG mice from The Jackson Laboratory or animal resource core facility at the City of Hope. After tumors reached an average size of 80~100 mm^3, mice were locally or intravenously treated with 1 mg/kg of PO- or PS-peptides (Anaspec) every day or every other day. Control animals were treated with the equal volume of HBSS (Invitrogen, Thermo Fisher Scientific). Tumor growth was measured by a digital caliper every other day. To study the effects of the modified peptides at protein and gene levels, mice were euthanized 4–6 weeks after tumor injection. B16 melanoma lung metastasis was performed by injecting 0.5 × 10^6 B16 cells into bloodstream of C57BL/6 mice (The Jackson Laboratory). One day after tumor challenge, mice were treated intravenously (retro-orbitally) with 1 mg/kg of PO- or PS-acet.-STAT3, PS-unacet.-STAT3, or PS-STAT3-K685R peptides every other day until the endpoint as indicated. Control mice were treated with HBSS. Lungs were excised from the mice, and B16 nodules were visualized by gp100 staining. Lungs were then analyzed for immune responses by immunostaining followed by confocal imaging. For mouse PDAC model, 5 × 10^6 KPC mouse cells were mixed with Matrigel and subcutaneously injected into C57BL/6 mice (The Jackson Laboratory). After tumors reached an average size of 80~100 mm^3, mice were intravenously treated with 1 mg/kg of PO- or PS-Gp130, PS-oligo, PS-SC-MYC, PS-MYC. or combined PS-Gp130/PS-MYC (0.5 mg/kg, 0.5 mg/kg) (Anaspec) every other day for 18 days. Control animals were treated with the equal volume of HBSS (Invitrogen, Thermo Fisher Scientific). Tumor growth was measured by a digital caliper every other day. To study the effects of the modified peptides at protein and gene levels, mice were euthanized at the endpoint as indicated.

In the case of “PDIPKEEAFGK685(Ac)YCRPESQEHPC-linker-T*C*C*A*T*G*A*G*C*T*T*C*C*T*G*A*T*G*C*T [PS-acet.-STAT3 peptide]”, the “interferon-γ (IFN-γ) and IL-2 production by CD8+ T cells” value (splenic CD8+ T cells) is reported as “induced”, the tumor growth (HCT116 xenograft tumors) is reported as “antitumor effects” and the metastatic lung nodules (B16 melanoma; B16 i.v. in C57BL/6 mice, 1 mg/kg i.v. every other day, gp100 staining, n = 5) is reported as “striking reduction”. For the same substance, the “STAT3 activation (p-STAT3) in tumor cells and CD4+ T cells” value (B16 melanoma; B16 lung nodules, IF staining, confocal) was “significantly decreased”, the “infiltration of CD69+ activated CD8+ T cells in metastatic B16 lung nodules” value (B16 melanoma; IF staining, confocal) was “increased” and the “tumor-associated FoxP3+CD4+ T cells (regulatory T cells)” value (B16 melanoma; IF staining, confocal) was “concomitantly reduced”.
